Laboratory results reported in patent US20220387339A1, “SUPERFINE COMPOUNDS AND PRODUCTION THEREOF” (Esolate Ltd, priority 2019, published 2022).
Converted amounts (≈) assume the structure as drawn.

Legend:
[1] = Solubility of cyclodextrins in supercritical CO2 under process conditions (Example 3); conditions: for solubility in supercritical CO2: experimental conditions: 40° C., 3,500 psi
[2] = Visual solubility in simulated stomach conditions (Example 5); format: physicochemical
Procedure: Bioavailability of the cannabinoid ultrafine nanoparticles obtained as described in Example 4 was assessed by visually evaluating the solubility of the fine nanoparticles in simulated stomach conditions. 0.5 g of NaCl was added to a 0.155 M solution of HCl in water to replicate stomach acidic conditions. 10 mg of the fine nanoparticles, 10 mg of the isolates in crystalline form, and 10 mg of the distillates were each placed in vials containing 10 ml of the acidic solution and incubated for 10 hours at 37° C. At the end of the 10-hour period, only minimal solubility of the preparations was observed. Additional 10 ml of the acidic solution were added, and the mixtures were incubated for 10 more hours at 37° C. At the end of the 20-hour period, the cannabinoid nanoparticles dissolved in the acidic solution.

[3] = Relative bioavailability test: CBD concentration in water by HPLC-UV (Example 6); format: physicochemical; conditions: after 32 hours elapsed time, 0.45 μm filtered
Procedure: Relative bioavailability tests of the cannabinoid ultrafine nanoparticles obtained as described in Example 4 (test samples) as compared to cannabinoid isolates in water (control samples) were performed using a high performance liquid chromatography (HPLC) separator equipped with a UV detector to determine the concentration of CBD in each sample. Control samples were prepared by filtering 1 ml of each sample through a 0.45 μm filter into a 2 ml HPLC vial and 1 ml of methanol (MeOH) was added to each sample vial. HPLC mobile phase was comprised of 65% acetonitrile and 35% water. A flow rate of 1 ml per minute led to the elution of CBD after approximately 4.5 minutes.
A percentage area was measured after 32 hours elapsed time, which represents the amount of CBD in each sample relative to the background signal created by the MeOH in each sample.

[4] = isolates currently available; cited from earlier work
[5] = Visual solubility in water before and after processing (FIGS. 3-4); format: physicochemical; conditions: FIGS. 3 and 4
Description: The crystals are insoluble in acid and in water.

With `CC(=O)OC[C@H]1O[C@@H]2O[C@H]3[C@H](OC(C)=O)[C@@H](OC(C)=O)[C@@H](O[C@H]4[C@H](OC(C)=O)[C@@H](OC(C)=O)[C@@H](O[C@H]5[C@H](OC(C)=O)[C@@H](OC(C)=O)[C@@H](O[C@H]6[C@H](OC(C)=O)[C@@H](OC(C)=O)[C@@H](O[C@H]7[C@H](OC(C)=O)[C@@H](OC(C)=O)[C@@H](O[C@H]8[C@H](OC(C)=O)[C@@H](OC(C)=O)[C@@H](O[C@H]1[C@H](OC(C)=O)[C@H]2OC(C)=O)O[C@@H]8COC(C)=O)O[C@@H]7COC(C)=O)O[C@@H]6COC(C)=O)O[C@@H]5COC(C)=O)O[C@@H]4COC(C)=O)O[C@@H]3COC(C)=O` [ABCD, β-cyclodextrin heneicosaacetate] the “solubility in supercritical CO2” value [1] was 1.3 wt. %.

For `C=C(C)[C@@H]1CCC(C)=C[C@H]1c1c(O)cc(CCCCC)cc1O` [CBD isolate, cannabidiol], the “solubility in acidic solution after 20 hours (visual)” value ([2]; 10 mg in 20 ml 0.155 M HCl with NaCl, 37° C., 20 hours) was “complete insolubility”, the “solubility in acid (visual)” value ([2]; acidic solvent resembling stomach conditions, FIGS. 3 and 5) was “insoluble” and the “percentage area (amount of CBD relative to MeOH background signal)” value [3] was 0.7706%. The solubility in water [4] was 12.6 µg/mL (≈ 40.1 µM) and the “solubility in water (visual)” value [5] was “insoluble”.

With Cyclodextrin the “solubility under the process conditions (supercritical CO2)” value ([1]; 40° C., 3,500 psi) was “insoluble”.

With α-cyclodextrin exadeacetate [AACD] the “solubility in supercritical CO2” value [1] was 1.1 wt. %.
